Data: patent US8802597B2, “Herbicidal pyrimidines” (E I du Pont de Nemours and Company, priority 2003, dated 2014)

Experiments:
Assay in all cases: Test C pre/postemergence
Format in all cases: in vivo
[1] = system: common (oilseed) sunflower (Helianthus annuus); settings: Preemergence
How it was run: (§1)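 Greenhouse herbicide screen, visual readout. Compound in solvent/surfactant applied preemergence at planting or postemergence to 1- to 4-leaf plants; assessed at 12–14 days on a 0–100 control scale.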

[2] = system: yellow nutsedge (Cyperus esculentus); settings: for Nutsedge, Yellow plant response rating: scale 0 to 100 (0 no effect, 100 complete control)
How it was run: as §1

[3] = system: woolly cupgrass (Eriochloa villosa); settings: for Cupgrass, Woolly plant response rating: scale 0 to 100 (0 no effect, 100 complete control)
How it was run: as §1

[4] = system: giant foxtail (Setaria faberii); settings: for Foxtail, Giant plant response rating: scale 0 to 100 (0 no effect, 100 complete control)
How it was run: as §1

[5] = system: cocklebur (Xanthium strumarium); settings: for Cocklebur plant response rating: scale 0 to 100 (0 no effect, 100 complete control); for Plant response rating, Cocklebur: scale 0 to 100
How it was run: as §1

[6] = system: pigweed (Amaranthus retroflexus); settings: for Pigweed plant response rating: scale 0 to 100 (0 no effect, 100 complete control)
How it was run: as §1

kochia (Kochia scoparia) = settings: for Kochia plant response rating: scale 0 to 100 (0 no effect, 100 complete control)
How it was run: as §1

[7] = system: morningglory (Ipomoea coccinea); settings: for Morningglory plant response rating: scale 0 to 100 (0 no effect, 100 complete control)
How it was run: as §1

[8] = system: johnsongrass (Sorghum halepense); settings: for Johnsongrass plant response rating: scale 0 to 100 (0 no effect, 100 complete control)
How it was run: as §1

[9] = system: crabgrass (Digitaria sanguinalis); settings: for Crabgrass plant response rating: scale 0 to 100 (0 no effect, 100 complete control)
How it was run: as §1

[10] = system: velvetleaf (Abutilon theophrasti); settings: for Velvetleaf plant response rating: scale 0 to 100 (0 no effect, 100 complete control)
How it was run: as §1

[11] = system: Surinam grass (Brachiaria decumbens); settings: for Surinam Grass plant response rating: scale 0 to 100 (0 no effect, 100 complete control); for Plant response rating, Surinam Grass: scale 0 to 100
How it was run: as §1

[12] = Postemergence, 250 g ai/ha, scale 0 to 100
[13] = Postemergence, 500 g ai/ha, scale 0 to 100
[14] = Preemergence, 62 g ai/ha, scale 0 to 100, 0 no effect, 100 complete control
[15] = Preemergence, 125 g ai/ha, scale 0 to 100
[16] = Preemergence, 250 g ai/ha, scale 0 to 100
[17] = Preemergence, 500 g ai/ha, scale 0 to 100

## COC(=O)CNc1nc(C2CC2)nc(C(=O)OC)c1Br [Compound 10]
[1]; 62 g ai/ha, scale 0 to 100, 0 no effect, 100 complete control
  Plant response rating, Sunflower: 0
[1]; 125 g ai/ha, scale 0 to 100
  Plant response rating, Sunflower: 0
[1]; 250 g ai/ha, scale 0 to 100
  Plant response rating, Sunflower: 0
[1]; 500 g ai/ha, scale 0 to 100
  Plant response rating, Sunflower: 0
[2]; Postemergence, 62 g ai/ha
  Nutsedge, Yellow plant response rating: 0
[2]; Postemergence, 125 g ai/ha
  Nutsedge, Yellow plant response rating: 0
[2]; [12]
  Plant response rating, Nutsedge, Yellow: 0
[2]; [13]
  Plant response rating, Nutsedge, Yellow: 0
[2]; [14]
  Plant response rating, Nutsedge, Yellow: 0
[2]; [15]
  Plant response rating, Nutsedge, Yellow: 0
[3]; Postemergence, 62 g ai/ha
  Cupgrass, Woolly plant response rating: 0
[3]; Postemergence, 125 g ai/ha
  Cupgrass, Woolly plant response rating: 0
[3]; [12]
  Plant response rating, Cupgrass, Woolly: 0
[3]; [13]
  Plant response rating, Cupgrass, Woolly: 0
[3]; [14]
  Plant response rating, Cupgrass, Woolly: 0
[3]; [15]
  Plant response rating, Cupgrass, Woolly: 0
[3]; [16]
  Plant response rating, Cupgrass, Woolly: 0
[3]; [17]
  Plant response rating, Cupgrass, Woolly: 0
[4]; Postemergence, 62 g ai/ha
  Foxtail, Giant plant response rating: 0
[4]; Postemergence, 125 g ai/ha
  Foxtail, Giant plant response rating: 0
[4]; [12]
  Plant response rating, Foxtail, Giant: 0
[4]; [13]
  Plant response rating, Foxtail, Giant: 0
[4]; [14]
  Plant response rating, Foxtail, Giant: 0
[4]; [15]
  Plant response rating, Foxtail, Giant: 0
[4]; [16]
  Plant response rating, Foxtail, Giant: 0
[4]; [17]
  Plant response rating, Foxtail, Giant: 0
[5]; Postemergence, 62 g ai/ha
  Cocklebur plant response rating: 0
[5]; Postemergence, 125 g ai/ha
  Cocklebur plant response rating: 15
[5]; Postemergence, 250 g ai/ha
  Plant response rating, Cocklebur: 60
[5]; Postemergence, 500 g ai/ha
  Plant response rating, Cocklebur: 75
[5]; Preemergence, 125 g ai/ha
  Plant response rating, Cocklebur: 0
[5]; Preemergence, 250 g ai/ha
  Plant response rating, Cocklebur: 0
[5]; Preemergence, 500 g ai/ha
  Plant response rating, Cocklebur: 100
[6]; Postemergence, 62 g ai/ha
  Pigweed plant response rating: 65
[6]; Postemergence, 125 g ai/ha
  Pigweed plant response rating: 80
[6]; [12]
  Plant response rating, Pigweed: 95
[6]; [13]
  Plant response rating, Pigweed: 95
[6]; [14]
  Plant response rating, Pigweed: 20
[6]; [15]
  Plant response rating, Pigweed: 55
[6]; [16]
  Plant response rating, Pigweed: 70
[6]; [17]
  Plant response rating, Pigweed: 85
Kochia (Kochia scoparia); Postemergence, 62 g ai/ha
  Kochia plant response rating: 80
Kochia (Kochia scoparia); Postemergence, 125 g ai/ha
  Kochia plant response rating: 90
Kochia (Kochia scoparia); [12]
  Plant response rating, Kochia: 95
Kochia (Kochia scoparia); [13]
  Plant response rating, Kochia: 100
Kochia (Kochia scoparia); [14]
  Plant response rating, Kochia: 0
Kochia (Kochia scoparia); [15]
  Plant response rating, Kochia: 0
Kochia (Kochia scoparia); [16]
  Plant response rating, Kochia: 45
Kochia (Kochia scoparia); [17]
  Plant response rating, Kochia: 65
[7]; Postemergence, 62 g ai/ha
  Morningglory plant response rating: 70
[7]; Postemergence, 125 g ai/ha
  Morningglory plant response rating: 85
[7]; [12]
  Plant response rating, Morningglory: 95
[7]; [13]
  Plant response rating, Morningglory: 95
[7]; [14]
  Plant response rating, Morningglory: 0
[7]; [15]
  Plant response rating, Morningglory: 0
[7]; [16]
  Plant response rating, Morningglory: 0
[7]; [17]
  Plant response rating, Morningglory: 100
[8]; Postemergence, 62 g ai/ha
  Johnsongrass plant response rating: 0
[8]; Postemergence, 125 g ai/ha
  Johnsongrass plant response rating: 0
[8]; [12]
  Plant response rating, Johnsongrass: 0
[8]; [13]
  Plant response rating, Johnsongrass: 0
[8]; [14]
  Plant response rating, Johnsongrass: 0
[8]; [15]
  Plant response rating, Johnsongrass: 0
[8]; [16]
  Plant response rating, Johnsongrass: 0
[8]; [17]
  Plant response rating, Johnsongrass: 0
[9]; Postemergence, 62 g ai/ha
  Crabgrass plant response rating: 0
[9]; Postemergence, 125 g ai/ha
  Crabgrass plant response rating: 0
[9]; [12]
  Plant response rating, Crabgrass: 0
[9]; [13]
  Plant response rating, Crabgrass: 0
[9]; [14]
  Plant response rating, Crabgrass: 0
[9]; [15]
  Plant response rating, Crabgrass: 0
[9]; [16]
  Plant response rating, Crabgrass: 0
[9]; [17]
  Plant response rating, Crabgrass: 0
[10]; Postemergence, 62 g ai/ha
  Velvetleaf plant response rating: 65
[10]; Postemergence, 125 g ai/ha
  Velvetleaf plant response rating: 70
[10]; [12]
  Plant response rating, Velvetleaf: 80
[10]; [13]
  Plant response rating, Velvetleaf: 90
[10]; [14]
  Plant response rating, Velvetleaf: 0
[10]; [15]
  Plant response rating, Velvetleaf: 0
[10]; [16]
  Plant response rating, Velvetleaf: 0
[10]; [17]
  Plant response rating, Velvetleaf: 60
[11]; Postemergence, 62 g ai/ha
  Surinam Grass plant response rating: 0
[11]; Postemergence, 125 g ai/ha
  Surinam Grass plant response rating: 0
[11]; Postemergence, 250 g ai/ha
  Plant response rating, Surinam Grass: 0
[11]; Postemergence, 500 g ai/ha
  Plant response rating, Surinam Grass: 0
[11]; Preemergence, 125 g ai/ha
  Plant response rating, Surinam Grass: 0
[11]; Preemergence, 250 g ai/ha
  Plant response rating, Surinam Grass: 0
[11]; Preemergence, 500 g ai/ha
  Plant response rating, Surinam Grass: 0
